Experiments:
[1] = target: T1, human TPO receptor (Homo sapiens, UniProt P40238); assay: pro-proliferation effect on BAF3-TPOR cell (CCK-8); type: cell-based, mouse; settings: BAF3-TPOR cells, proliferation relative to rhTPO positive control
T1 sequence (P40238 26-635): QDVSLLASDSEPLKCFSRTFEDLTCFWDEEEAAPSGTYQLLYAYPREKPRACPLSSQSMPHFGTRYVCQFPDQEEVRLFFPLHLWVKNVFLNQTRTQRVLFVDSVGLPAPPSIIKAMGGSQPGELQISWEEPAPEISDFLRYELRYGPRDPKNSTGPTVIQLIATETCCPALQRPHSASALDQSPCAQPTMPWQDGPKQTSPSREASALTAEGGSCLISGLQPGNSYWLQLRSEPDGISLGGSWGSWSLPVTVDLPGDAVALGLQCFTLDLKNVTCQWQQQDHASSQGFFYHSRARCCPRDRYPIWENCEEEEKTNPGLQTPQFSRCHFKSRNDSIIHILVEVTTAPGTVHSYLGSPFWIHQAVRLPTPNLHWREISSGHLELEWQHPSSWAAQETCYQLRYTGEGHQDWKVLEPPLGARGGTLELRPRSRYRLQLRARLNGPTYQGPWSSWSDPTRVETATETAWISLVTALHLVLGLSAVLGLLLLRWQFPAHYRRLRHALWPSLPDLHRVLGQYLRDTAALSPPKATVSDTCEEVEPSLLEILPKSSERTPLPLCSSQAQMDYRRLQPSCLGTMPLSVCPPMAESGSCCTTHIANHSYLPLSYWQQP
Method: The sequence of primers which contains multi-sites mutation was designed as follows: […]
The E. coli DH5α competent cell was transformed with mutated plasmid, and positive colonies were picked up through ampicillin selection.
(2) BAF3-TPOR stable transfected cell line: the following method was used to construct the BaF3 cell which stably over-expressed functional human TPO receptor. […] The stable transfected cells BAF3-TPOR were selected with G418 (Gibco, US), then incubated with RPMI1640 medium plus 10% FBS (Gibco, US), […] G418, 5 ng/mL, rmIL-3 (Chemicon, US).
(1) Washing cells by centrifugation: a suitable amount of cell suspension was centrifuged at 1000 rpm for 5 minutes, and the supernatant was discarded. 10 mL of cell culture media without containing IL-3 was added. Then the resulting cell suspension was centrifuged at 1000 rpm for 5 minutes, and the supernatant was discarded.
(2) 1 mL of cell culture media without containing IL-3 was added to beat upon them to equality, and the number of a suitable amount of cell suspension was counted after dilution.
(3) According to the result of the cell counting, a cell suspension in a concentration of 100,000 cell/mL was prepared.
(4) 100 μL of cell suspension was transferred to each well of 96-well culture plate, and there were 3 parallel wells, that is, there were a blank control group (B), a negative control group (N), a positive control group of TPO (P) and a test compound group (S).
(5) The test compound was dissolved in DMSO to prepare a 10 mM stock solution, and then the solution was diluted with RPMI 1640 medium into a series of test samples at different concentration: 30 μM, 10 μM, 3 μM, 1 μM, 0.3 μM, 0.1 μM, 0.03 μM, 0.01 μM, 0.003 μM, 0.001 μM.
(6) 10 μL of test compound solution was transferred to each well respectively; 1 μL of rhTPO (10 μg/mL) was added to positive control well.
(7) The plates were incubated in an incubator at 5% CO2 and 37° C. for 24 hours.
(9) OD value was detected at 450 nm by VICTOR3 (Perkin Elmer 1420-120) plate reader.
(1) The proliferation rate was calculated as follows: Rate=[(S−B)/(P−B)]*100%
S: OD value of wells which contains test compound.
B: OD value of blank control wells
P: OD value of positive control wells
(2) The EC50 value was calculated by Origin 7.0 software.

[2] = Pharmacokinetics assay in rats after intragastric administration; type: in vivo; settings: both sexes, Sprague-Dawley, rat, plasma, po, SD rats, 5 mg/Kg; for Vd/F: read-out: Apparent Distribution Volume Vz/F; for CL/F: read-out: Clearance CL/F (converted); for AUC: read-out: Curve Area AUC; for half-life: read-out: Half-Life t½ (converted); for MRT: read-out: Mean Residence Time MRT; for Cmax: read-out: Plasma Conc. Cmax
Method: Test Example 1: Pharmacokinetics assay of the compounds of the present disclosure
The pharmacokinetics of the compounds of the present disclosure was studied and evaluated in rats.
The test compound was diluted with 1% sodium carboxymethyl cellulose to 0.5 mg/mL (calculated as the free acid form) of suspension before use.
24 healthy adult SD rats, male and female in half, were divided into […]. After an overnight fast, the rats were administered intragastrically at a dose of 5.0 mg/kg (calculated as the free acid form), at a volume of 10 mL/kg.
24 healthy adult SD rats, male and female in half, were administered intragastrically at a dose of 5.0 mg/kg after an overnight fast. Blood samples (0.2 mL) were taken from eye socket at pre administration and at 0.5, 1.0, 2.0, 3.0, 4.0, 5.0, 6.0, 8.0, 11.0, 14.0, 24.0, 36.0 and 48.0 hours post administration, which were stored in heparinized tubes and centrifuged for 10 minutes at 3,500 rpm. The plasma samples were stored at −20° C. until analysis.
50 μL of rat plasma, obtained at various time points after administration, 20 μL of internal standard solution and 20 μL of a solvent mixture of methanol and water (80:20, v/v) were mixed well, and then 150 μL of methanol was added to result in protein precipitation. Then the mixture was mixed for 1 minute using a vortexer and centrifuged for 10 minutes at 13,000 rpm. 20 μL of the supernatant was analyzed by LC/MS/MS.
50 μL of blank plasma was spiked with a series of standard solutions to produce final concentrations of 1.0, 5.0, 25.0, 50.0, 100.0, 250.0, 500.0 ng/mL, followed by addition of 20 μL of internal standard solution, which was treated according to plasma sample pretreatment protocol. A typical calibration curve equation was obtained with plasma concentration as the abscissa and the chromatographic peak area ratio of sample to internal standard as the ordinate, using weighted least squares method (w=1/x^2) for linear regression.
The compartmental model of pharmacokinetics was fitted for the test compounds and the major pharmacokinetic parameters were calculated in which Cmax and tmax were the actually measured values.

Structure (SMILES) | EC50 [1] [µM] | further results
CC1=NN(c2ccc3c(c2)CC(C)(C)C3)C(=O)/C1=N\Nc1cccc(-c2ccc(C(=O)O)o2)c1O [Example 45, 5-(3-{N′-[1-(2,2-Dimethyl-indan-5-yl)-3-methyl-5-oxo-1,5-dihydro-pyrazol-4-ylidene]-hydrazino}-2-hydroxy-phenyl)-furan-2-carboxylic acid] | 0.13 | 
CC1=NN(c2ccc3c(c2)CCC3)C(=O)/C1=N\Nc1cc(C)cc(-c2ccc(C(=O)O)o2)c1O [Example 46, 5-{2-Hydroxy-3-[N′-(1-indan-5-yl-3-methyl-5-oxo-1,5-dihydro-pyrazol-4-ylidene)-hydrazino]-5-methyl-phenyl}-furan-2-carboxylic acid] | 0.056 | 
CC1=NN(c2ccc3c(c2)C(C)(C)CC3(C)C)C(=O)/C1=N\Nc1cc(C)cc(-c2cccc(C(=O)O)c2)c1O [Example 20, 2′-Hydroxy-5′-methyl-3′-{N′-[3-methyl-5-oxo-1-(1,1,3,3-tetramethyl-indan-5-yl)-1,5-dihydro-pyrazol-4-ylidene]-hydrazino}-biphenyl-3-carboxylic acid] | 0.089 | 
CC1=NN(c2ccc3c(c2)CCC3)C(=O)/C1=N\Nc1cccc(-c2cccc(C(=O)O)c2)c1O [Example 1, 2′-Hydroxy-3′-[N′-(1-indan-5-yl-3-methyl-5-oxo-1,5-dihydro-pyrazol-4-ylidene)-hydrazino]-biphenyl-3-carboxylic acid] |  | Vd/F [2]: 0.35 ± 0.18 L/kg; CL/F [2]: 0.817 mL/min/kg; AUC [2]: 132000 ± 47000 ng·h/mL; half-life [2]: 5.39 ± 0.94 h; MRT [2]: 4.96 ± 1.16 h; Cmax [2]: 29000 ± 11400 ng/mL
CC1=NN(c2ccc3c(c2)CC3)C(=O)/C1=N\Nc1cccc(-c2ccc(C(=O)O)s2)c1O [Example 37, 5-{3-[N′-(1-Bicyclo[4.2.0]octa-1(6),2,4-trien-3-yl-3-methyl-5-oxo-1,5-dihydro-pyrazol-4-ylidene)-hydrazino]-2-hydroxy-phenyl}-thiophene-2-carboxylic acid] | 0.09 | 
CC1=NN(c2ccc3c(c2)CCCC3)C(=O)/C1=N\Nc1cc(C)cc(-c2ccc(C(=O)O)o2)c1O [Example 50, 5-(2-Hydroxy-5-methyl-3-{N′-[3-methyl-5-oxo-1-(5,6,7,8-tetrahydro-naphthalen-2-yl)-1,5-dihydro-pyrazol-4-ylidene]-hydrazino}-phenyl)-furan-2-carboxylic acid] | 0.126 | 
CC1=NN(c2ccc3c(c2)CC3)C(=O)/C1=N\Nc1cccc(-c2cccc(C(=O)O)c2)c1O [Example 5, 3′-[N′-(1-Bicyclo[4.2.0]octa-1(6),2,4-trien-3-yl-3-methyl-5-oxo-1,5-dihydro-pyrazol-4-ylidene)-hydrazino]-2′-hydroxy-biphenyl-3-carboxylic acid] | 0.354 | 
CC1=NN(c2ccc3c(c2)CCO3)C(=O)/C1=N\Nc1cc(C)cc(-c2cccc(C(=O)O)c2)c1O [Example 13, 3′-{N′-[1-(2,3-Dihydro-benzofuran-5-yl)-3-methyl-5-oxo-1,5-dihydro-pyrazol-4-ylidene]-hydrazino}-2′-hydroxy-5′-methyl-biphenyl-3-carboxylic acid] | 0.141 | 
CC1=NN(c2ccc3c(c2)C(C)(C)CC3)C(=O)/C1=N\Nc1cc(C)cc(-c2cccc(C(=O)O)c2)c1O [Example 16, 3′-{N′-[1-(3,3-Dimethyl-indan-5-yl)-3-methyl-5-oxo-1,5-dihydro-pyrazol-4-ylidene]-hydrazino}-2′-hydroxy-5′-methyl-biphenyl-3-carboxylic acid] | 0.16 | 
COC(=O)c1ccc(-c2cccc(N/N=C3\C(=O)N(c4ccc5c(c4)CCCC5)N=C3C)c2O)o1 [Example 54, 5-(2-Hydroxy-3-{N′-[3-methyl-5-oxo-1-(5,6,7,8-tetrahydro-naphthalen-2-yl)-1,5-dihydro-pyrazol-4-ylidene]-hydrazino}-phenyl)-furan-2-carboxylic acid methyl ester] | 0.133 | 
CC1=NN(c2ccc3c(c2)CCCC3)C(=O)/C1=N\Nc1cccc(-c2csc(C(=O)O)c2)c1O [Example 51, 4-(2-Hydroxy-3-{N′-[3-methyl-5-oxo-1-(5,6,7,8-tetrahydro-naphthalen-2-yl)-1,5-dihydro-pyrazol-4-ylidene]-hydrazino}-phenyl)-thiophene-2-carboxylic acid] | 0.055 | 
COC(=O)c1ccc(-c2cccc(N/N=C3\C(=O)N(c4ccc5c(c4)CCC5)N=C3C)c2O)o1 [Example 55, 5-{2-hydroxy-3-[N′-(1-indan-5-yl-3-methyl-5-oxo-1,5-dihydro-pyrazol-4-ylidene)-hydrazino]-phenyl}-furan-2-carboxylic acid methyl ester] | 0.071 | 
CC1=NN(c2ccc3c(c2)CCO3)C(=O)/C1=N\Nc1cccc(-c2cccc(C(=O)O)c2)c1O [Example 7, 3′-{N′-[1-(2,3-dihydro-benzofuran-5-yl)-3-methyl-5-oxo-1,5-dihydro-pyrazol-4-ylidene]-hydrazino}-2′-hydroxy-biphenyl-3-carboxylic acid] | 0.265 | 
CC1=NN(c2ccc3c(c2)CCCC3)C(=O)/C1=N\Nc1cc(C)cc(-c2cccc(C(=O)O)c2)c1O [Example 11, 2′-Hydroxy-5′-methyl-3′-{N′-[3-methyl-5-oxo-1-(5,6,7,8-tetrahydro-naphthalen-2-yl)-1,5-dihydro-pyrazol-4-ylidene]-hydrazino}-biphenyl-3-carboxylic acid] | 0.257 | 
CC1=NN(c2ccc3c(c2)CCCC3)C(=O)/C1=N\Nc1cccc(-c2ccc(C(=O)O)o2)c1O [Example 15, 5-(2-Hydroxy-3-{N′-[3-methyl-5-oxo-1-(5,6,7,8-tetrahydro-naphthalen-2-yl)-1,5-dihydro-pyrazol-4-ylidene]-hydrazino}-phenyl)-furan-2-carboxylic acid] |  | Vd/F [2]: 1.36 ± 0.7 L/kg; CL/F [2]: 4.67 mL/min/kg; AUC [2]: 23800 ± 17300 ng·h/mL; half-life [2]: 3.47 ± 0.79 h; MRT [2]: 4.09 ± 0.99 h; Cmax [2]: 6630 ± 3780 ng/mL
